In ChEMBL document CHEMBL4706630, “Modulation of the G-Protein-Coupled Receptor 84 (GPR84) by Agonists and Antagonists” (J Med Chem, 2020) one finds EC50 and IC50 data, which are given here for 8 compounds.

Experiment [1] has as its target T1, G-protein coupled receptor 84 (Homo sapiens, UniProt Q9NQS5). As to the kind of experiment: Agonist activity at human Gialpha-coupled GPR84 expressed in baculovirus infected sf9 insect cells assessed as induction of [35S]GTPgammaS incubated for 1 hr by liquid scintillation counting method. In kind it is functional. On the technique in general: GTPγS resists hydrolysis and so accumulates on activated G proteins.

For experiment [2], the target named is T2, G-protein coupled receptor 84 (Mus musculus, UniProt Q8CIM5). As to the kind of experiment: Agonist activity at GPR84 in mouse bone-marrow-derived neutrophils assessed as stimulation of [35S]GTPgammaS binding incubated for 60 mins by liquid scintillation spectroscopy. In kind it is functional, tissue-based, Neutrophil.
T2 sequence (Q8CIM5 whole entry): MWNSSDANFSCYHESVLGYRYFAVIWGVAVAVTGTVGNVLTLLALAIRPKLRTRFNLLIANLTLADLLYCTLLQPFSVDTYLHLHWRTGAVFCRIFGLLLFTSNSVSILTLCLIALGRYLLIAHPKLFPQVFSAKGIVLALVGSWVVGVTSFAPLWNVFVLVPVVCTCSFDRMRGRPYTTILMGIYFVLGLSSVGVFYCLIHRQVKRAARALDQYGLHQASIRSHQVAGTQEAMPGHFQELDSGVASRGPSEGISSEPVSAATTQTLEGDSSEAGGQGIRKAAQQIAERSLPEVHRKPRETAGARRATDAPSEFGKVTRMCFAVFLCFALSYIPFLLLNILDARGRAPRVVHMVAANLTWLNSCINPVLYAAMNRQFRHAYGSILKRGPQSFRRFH
Experiment [3] has as its target T1, G-protein coupled receptor 84. As to the kind of experiment: Agonist activity at human GPR84 expressed in CHO cell membranes assessed as induction of [35S]GTPgammaS incorporation incubated for 1 hr by liquid scintillation counting method. The format is functional, Cell membrane.
The target is the same in experiment [4]. Nature of the experiment: Agonist activity at human GPR84 expressed in CHO cells assessed as reduction in forskolin-stimulated cAMP production preincubated for 20 mins followed by forskolin stimulation and measured after 20 mins by cAMP assay. In kind it is functional, cell-based.
Experiment [5] shares this target. As to the kind of experiment: Antagonist activity at recombinant human N-terminal epitope tagged/eYFP-fused FLAG-tagged GPR84 expressed in Flp-In TREx 293 cells assessed as inhibition of embelin-induced [35S]GTPgammaS binding pre-incubated for 15 mins followed by [35S]GTPgammaS addition and measured after 45 mins by liquid scintillation spectrometry. In kind it is functional, cell-based, Flp-In-T-REx-293.

The target is the same in experiment [6]. As to the kind of experiment: Antagonist activity at recombinant human N-terminal epitope tagged/eYFP-fused FLAG-tagged GPR84 expressed in Flp-In TREx 293 cells assessed as inhibition of decanoic acid-induced [35S]GTPgammaS binding pre-incubated for 15 mins followed by [35S]GTPgammaS addition and measured after 45 mins by liquid scintillation spectrometry. The format is functional, cell-based, Flp-In-T-REx-293.

The target is the same in experiment [7]. Nature of the experiment: Antagonist activity at recombinant human N-terminal epitope tagged/eYFP-fused FLAG-tagged GPR84 expressed in Flp-In TREx 293 cells assessed as inhibition of DIM-induced [35S]GTPgammaS binding pre-incubated for 15 mins followed by [35S]GTPgammaS addition and measured after 45 mins by liquid scintillation spectrometry. The format is functional, cell-based, Flp-In-T-REx-293.

Experiment [8] shares this target. Nature of the experiment: Antagonist activity at GPR84 in LPS-treated human THP-1 cell membrane assessed as reduction in ZQ-16-induced stimulation of [35S]GTPgammaS binding preincubated for 15 mins followed by ZQ-16 addition and subsequent addition of [35S]GTPgammaS measured after 60 mins by liquid scintillation spectroscopy. The format is functional.
The target is the same in experiment [9]. As to the kind of experiment: Antagonist activity at human Flag-tagged Gialpha-coupled GPR84 expressed in human Flp-In-T-REx-293 cell membrane assessed as reduction in PSB-16671-induced stimulation of [35S]GTPgammaS binding preincubated for 15 mins followed by PSB-16671 addition and subsequent addition of [35S]GTPgammaS measured after 60 mins by liquid scintillation spectroscopy. In kind it is functional, cell membranes.

For experiment [10] the target is unchanged. Nature of the experiment: Antagonist activity at GPR84 in LPS-treated human THP-1 cell membrane assessed as reduction in PSB-16671-induced stimulation of [35S]GTPgammaS binding preincubated for 15 mins followed by PSB-16671 addition and subsequent addition of [35S]GTPgammaS measured after 60 mins by liquid scintillation spectroscopy. In kind it is functional.

Experiment [11] deals with T2, G-protein coupled receptor 84. As to the kind of experiment: Antagonist activity at mouse Galphai2-coupled GPR84 expressed in human Flp-In-T-REx-293 cell membrane assessed as reduction in PSB-16671-induced stimulation of [35S]GTPgammaS binding preincubated for 15 mins followed by PSB-16671 addition and subsequent addition of [35S]GTPgammaS measured after 60 mins by liquid scintillation spectroscopy. In kind it is functional, cell membranes.

The target is the same in experiment [12]. As to the kind of experiment: Antagonist activity at GPR84 in LPS-treated mouse RAW 264.7 cell membrane assessed as reduction in PSB-16671-induced stimulation of [35S]GTPgammaS binding preincubated for 15 mins followed by PSB-16671 addition and subsequent addition of [35S]GTPgammaS measured after 60 mins by liquid scintillation spectroscopy. In kind it is functional, cell membranes, RAW264.7.

In experiment [13] the target is T1, G-protein coupled receptor 84. Nature of the experiment: Antagonist activity at human GPR84 expressed in CHO-K1 cells assessed as reduction in 6-OAU-induced inhibition of forskolin stimulated cAMP production preincubated for 15 mins followed by forskolin and 6-OAU stimulation and measured after 30 mins by luminescence method. The format is functional, cell-based. On the technique in general: Changes in cAMP serve as a functional read-out for many G protein-coupled receptors.

As a reminder, the EC50 is the concentration that produces a half-maximal response. Usually IC50 stands for the concentration needed to halve the response being measured.

T1 sequence (Q9NQS5 whole entry): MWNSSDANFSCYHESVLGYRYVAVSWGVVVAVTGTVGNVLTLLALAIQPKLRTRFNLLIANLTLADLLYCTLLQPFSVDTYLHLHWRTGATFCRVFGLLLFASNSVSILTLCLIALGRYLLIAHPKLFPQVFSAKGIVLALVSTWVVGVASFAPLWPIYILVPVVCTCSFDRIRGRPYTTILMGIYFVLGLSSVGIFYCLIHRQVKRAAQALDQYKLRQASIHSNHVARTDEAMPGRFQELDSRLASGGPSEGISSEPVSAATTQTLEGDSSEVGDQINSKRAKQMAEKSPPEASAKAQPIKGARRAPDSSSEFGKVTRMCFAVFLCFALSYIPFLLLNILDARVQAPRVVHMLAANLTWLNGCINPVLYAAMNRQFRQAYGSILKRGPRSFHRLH

`CCCCCCCCCC(O)CC(=O)O` (stereo not given): the EC50 in [1] stood at 13000 nM.

Take `Fc1cc(F)c2[nH]cc(Cc3c[nH]c4c(F)cc(F)cc34)c2c1`: the 50% effective concentration (EC50) in experiment [2] amounted to 2880 nM.

Take `CCCCCCCCC(=O)O` [NONANOATE]: the results for the EC50 in [3] and in [4] were 70200 nM and 52300 nM, respectively.

Consider `CCCCCCSc1nc(O)cc(O)n1`, for which the EC50 in [2] was 12.9 nM.

`O=c1nc(OC[C@@H]2COCCO2)cc2n1CCc1cc(COCC3CCOCC3)ccc1-2`: the half-maximal inhibitory concentration (IC50) was 83 nM in experiment [5], 168 nM in [6] and 55 nM in experiment [7].

In the case of `O=c1nc(OC[C@H]2COCCO2)cc2n1CCc1cc(OCc3noc(C4CC4)n3)ccc1-2`, the IC50 in experiment [5] came out at 14 nM; in [6], 28 nM; in experiment [7], 86 nM.

As to `O=c1nc(OCC2COCCO2)cc2n1CCc1cc(C#CCNc3ccccc3)ccc1-2` (stereo not given), the half-inhibitory concentration (IC50) was 22 nM in [5]; 25 nM in experiment [6]; 14 nM in experiment [8]; 21 nM in experiment [7]; 0.9 nM in experiment [9]; 4.8 nM in [10]. Also, the 50% inhibitory concentration (IC50) came to 68 nM in experiment [11] and 145 nM in [12].

Regarding `O=c1nc(OCC2COCCO2)cc2n1CCc1cc(OCc3ccccn3)ccc1-2` (stereo not given), in experiment [13], the half-inhibitory concentration (IC50) is 260 nM.
